Measured values published in patent US9850277B2, “Therapeutically active compositions and their methods of use” (AGIOS PHARMACEUTICALS, INC, priority 2013, dated 2017).
pIC50: −log10 of the molar value.

Test system: U87MG cells
Assay: Cellular assay, inhibition of 2-HG production in U87MG cells
Format: cell-based
Settings: 48 hours
Description: Cells (HT1080 or U87MG) are grown in T125 flasks in DMEM containing 10% FBS, 1× penicillin/streptomycin and 500 ug/mL G418 (present in U87MG cells only). They are harvested by trypsin and seeded into 96 well white bottom plates at a density of 5000 cell/well in 100 ul/well in DMEM with 10% FBS. […] Cells are incubated overnight at 37° C. in 5% CO2. The next day test compounds are made up at 2× the final concentration and 100 ul are added to each cell well. The final concentration of DMSO is 0.2% and the DMSO control wells are plated in row G. The plates are then placed in the incubator for 48 hours. […] The cell plate is placed back in the incubator for another 24 hours. At 72 hours post compound addition, 10 mL/plate of Promega Cell Titer Glo reagent is thawed and mixed. The cell plate is removed from the incubator and allowed to equilibrate to room temperature. Then 100 ul of Promega Cell Titer Glo reagent is added to each well of media. The cell plate is then placed on an orbital shaker for 10 minutes and then allowed to sit at room temperature for 20 minutes. The plate is then read for luminescence with an integration time of 500 ms.

Molecule | pIC50
N#Cc1cccc(N2C(=O)OC[C@H]2C(=O)N(c2cccc3cn[nH]c23)[C@H](C(=O)NC2CCC(F)(F)CC2)c2ccccc2Cl)c1 [Compound 142, (S)—N—((S)-1-(2-Chlorophenyl)-2-(4,4-difluorocyclohexylamino)-2-oxoethyl)-3-(3-cyanophenyl)-N-(1H-indazol-7-yl)-2-oxooxazolidine-4-carboxamide] | > 7.00
(S)-1-(4-Cyanopyridin-2-yl)-N—((S)-1-(2,4-dichlorophenyl)-2-((3,3-difluorocyclobutyl)-amino)-2-oxoethyl)-N-(3,5-difluorophenyl)-5-oxopyrrolidine-2-carboxamide [Compound 196] | > 7.00
(S)-tert-butyl 3-(((S)-1-(2-chlorophenyl)-2-((3,3-difluorocyclobutyl) amino)-2-oxoethyl)(3,5-difluorophenyl)carbamoyl)-5-oxopiperazine-1-carboxylate [Compound 97] | > 7.00
(S)—N—((S)-1-(2-Chlorophenyl)-2-(3,3-difluorocyclobutylamino)-2-oxoethyl)-1-(3-cyano-phenyl)-N-(1H-indazol-7-yl)-5-oxopyrrolidine-2-carboxamide [Compound 186] | > 7.00
(S)—N—((S)-1-(2-Chlorophenyl)-2-(3,3-difluorocyclobutylamino)-2-oxoethyl)-N-(3-cyano-5-fluorophenyl)-3-(3-cyanophenyl)-2-oxooxazolidine-4-carboxamide [Compound 134] | > 7.00
(S)—N—((S)-1-(2-Chlorophenyl)-2-((3,3-difluorocyclobutyl)amino)-2-oxoethyl)-1-(4-cyanopyridin-2-yl)-N-(1H-indazol-6-yl)-5-oxopyrrolidine-2-carboxamide [Compound 205] | > 7.00
(S)—N—((S)-1-(2-Chlorophenyl)-2-((4,4-difluorocyclohexyl)amino)-2-oxoethyl)-1-(4-cyanopyridin-2-yl)-N-(1H-indazol-6-yl)-5-oxopyrrolidine-2-carboxamide [Compound 136] | > 7.00

Biological target: IDH1 R132H (Homo sapiens (Human), UniProt O75874, R132H)
Sequence (O75874 whole entry R132H): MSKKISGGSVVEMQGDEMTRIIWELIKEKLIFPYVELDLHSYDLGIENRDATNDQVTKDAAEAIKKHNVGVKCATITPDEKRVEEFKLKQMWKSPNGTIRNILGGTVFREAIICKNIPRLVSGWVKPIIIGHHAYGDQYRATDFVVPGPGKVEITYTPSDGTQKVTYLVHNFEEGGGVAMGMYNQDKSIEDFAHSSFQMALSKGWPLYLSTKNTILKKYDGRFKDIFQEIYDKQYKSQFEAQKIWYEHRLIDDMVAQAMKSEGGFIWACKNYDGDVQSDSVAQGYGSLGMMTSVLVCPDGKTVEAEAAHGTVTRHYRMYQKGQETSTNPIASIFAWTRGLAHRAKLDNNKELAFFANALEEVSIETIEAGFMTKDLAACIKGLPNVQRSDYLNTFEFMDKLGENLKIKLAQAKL
Assay: In vitro NADPH depletion assay for IDH1m R132H inhibitors
Format: biochemical
Settings: IDH1 R132H enzyme, read-out: IDH R132H IC50
Description: (§1) A test compound is prepared as 10 mM stock in DMSO and diluted to 50× final concentration in DMSO, for a 50 μl reaction mixture. IDH enzyme activity converting alpha-ketoglutarate to 2-hydroxyglutaric acid is measured using a NADPH depletion assay. In the assay the remaining cofactor is measured at the end of the reaction with the addition of a catalytic excess of diaphorase and resazurin, to generate a fluorescent signal in proportion to the amount of NADPH remaining. […] The reaction is started with the addition of 10 μl of Substrate Mix ([…], 5 mM alpha-ketoglutarate, in Assay Buffer) and the mixture is incubated for 90 minutes at room temperature.

pIC50 | Molecule
6.30 to 7.00 | O=C(NC1CC(F)(F)C1)C(c1ccccc1Cl)N(C(=O)[C@@H]1CCC(=O)N1c1cccnc1)c1cccc(F)c1 (stereo partly shown) [Compound 10]
6.30 to 7.00 | O=C(NC1CC(F)(F)C1)[C@H](c1ccccc1Cl)N(C(=O)[C@@H]1CCC(=O)N1c1cccc(F)n1)c1cccc(F)c1 [Compound 11]
6.30 to 7.00 | O=C(NC1CC(F)(F)C1)[C@H](c1ccccc1Cl)N(C(=O)[C@@H]1CCC(=O)N1c1nccc2ccccc12)c1cccc(F)c1 [Compound 16]
6.30 to 7.00 | COc1cccnc1N1C(=O)CC[C@H]1C(=O)N(c1cccc(F)c1)[C@H](C(=O)NC1CC(F)(F)C1)c1ccccc1Cl [Compound 17]

Biological target: IDH1 R132C (Homo sapiens (Human), UniProt O75874, R132C)
Sequence (O75874 whole entry R132C): as the sequence (O75874 whole entry R132H) above, with H132C counted along it
Assay: In vitro NADPH depletion assay for IDH1m R132C inhibitors
Format: biochemical
Settings: IDH1 R132C enzyme, read-out: IDH R132C IC50
Description: as §1
The concentration of NADPH and alpha-ketoglutarate in the Substrate Buffer is 20 μM and 1 mM, respectively.

pIC50 | Molecule
6.30 to 7.00 | O=C(NC1CC(F)(F)C1)[C@H](c1ccccc1Cl)N(C(=O)[C@@H]1CCC(=O)N1c1cccc(F)n1)c1cccc(F)c1 [Compound 11]
6.30 to 7.00 | O=C(NC1CC(F)(F)C1)[C@H](c1ccccc1Cl)N(C(=O)[C@@H]1CCC(=O)N1c1nccc2ccccc12)c1cccc(F)c1 [Compound 16]
